From paper PMC4153677, “Probing the Activity Modification Space of the Cysteine Peptidase Cathepsin K with Novel Allosteric Modifiers” (PLoS ONE, 2014)

Target: T1, Recombinant human cathepsin K (Homo sapiens, UniProt P43235)
T1 construct: made in house
T1 sequence (P43235 115-329): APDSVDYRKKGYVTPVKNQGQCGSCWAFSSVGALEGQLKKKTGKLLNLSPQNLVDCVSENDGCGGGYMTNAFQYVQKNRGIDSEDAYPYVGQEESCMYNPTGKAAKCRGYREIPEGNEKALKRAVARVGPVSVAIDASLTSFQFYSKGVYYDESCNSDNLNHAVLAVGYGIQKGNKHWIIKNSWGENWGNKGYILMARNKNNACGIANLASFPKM
Experiment: Kinetic measurements, hydrolysis of the fluorogenic substrate Z-FR↓AMC (general modifier mechanism)
Format: biochemical
Design: key to α (coefficient, effect of modifier on the affinity for the substrate) / β (coefficient, effect of modifier on the catalytic rate): dimensionless coefficients multiplying KS (α) and kcat (β)
Procedure: All modifiers were tested for their effect on the hydrolysis of the low molecular mass synthetic substrate Z-FR↓AMC. Since all progress curves were linear from the beginning of the reaction, initial velocities were calculated from the slopes by linear regression. […] The basic mechanism considered for the analysis of the interactions was the general modifier mechanism shown in Figure 2, in which the effect of modifier is determined by the values of the coefficients α and β that multiply the kinetic parameters K S, K A (α) and k cat (β). In the thermodynamic box embodied in Figure 2, the reciprocal of the coefficient α represents the allosteric coupling constant that characterizes energy linkage between the modifier and the substrate, while a […] represents the effect exerted by the modifier on catalysis. The specific velocity plot was used for the primary screening of the kinetic behavior of the modifiers (Equation 2), as it allows an immediate judgment of the type of interaction and to gather preliminary estimates of the coefficients α and β, as well as of the dissociation constant of the modifier. Refinement was then performed by fitting the rate Equation 1 to data.
Figure 3 Kinetic mechanisms of the identified modifiers. All compounds were characterized by a combination of specific velocity plots (upper panels) and titration curves recorded at fixed substrate concentrations (lower panels). All experiments were performed at 25±1°C in 100 mM sodium acetate buffer pH 5.50 containing 1 mM EDTA and 2.5 mM DTT using the fluorogenic substrate Z-FR↓AMC and at a final enzyme concentration of 0.5 nM.
All kinetic measurements were performed in 100 mM sodium acetate buffer pH 5.50 containing 1 mM EDTA and 2.5 mM dithiothreitol (DTT) in single-use acrylic cuvettes (1×1 cm) thermostatted at 25±1°C with magnetic stirring. The hydrolysis of Z-FR↓AMC was followed fluorometrically at λex 383 nm and λem 455 nm. All tested modifiers were analyzed spectroscopically to determine their absorption properties under the conditions used in the assays. When necessary, appropriate corrections were made to the calculated reaction rates to take into account the inner filter effect.
The effects of the modifiers on enzymatic activity were analyzed with the general modifier mechanism which describes the interaction between enzyme (E), substrate (S) and modifier (A), as shown in Figure 2. Assuming that binding of A to E and ES is at quasi-equilibrium and that steady-state conditions are established in the fluxes around ES and ESA (i.e. the catalytic steps), the reaction rate for the mechanism in Figure 2 is defined by Equation 1: [drawing 2] (1) where v 0 is the reaction rate in the absence of modifier, K A is the equilibrium dissociation constant of the EA complex, α and β are dimensionless coefficients and σ = [S]/K m, approximated to [S]/K s. To determine the mechanism of interaction, plot the kinetic data and calculate preliminary values of the interaction parameters, the specific velocity plot was used. For this purpose, Equation 1 is rewritten as:
The plot of v 0/v A versus σ/(1+σ) produces straight lines with intersection points at v 0/v A = 1, regardless of the interaction mechanism. The parameters α, β and K A are determined by replotting the extrapolated values of the straight lines at σ/(1+σ) = 0 (a) and σ/(1+σ) = 1 (b) versus 1/[A] in the form: [drawing 4] (3) [drawing 5] (4)

- Z-FRAMC: geometric mean of residual activities (vA) (at 0.1×Km and 10×Km substrate, modifier 10×KA, calculated with Equation 1 from α and β of Table 3, unmodified enzyme = 1.00): 0.42
- β (coefficient, effect of modifier on the catalytic rate) (substrate Z-FR↓AMC, pH 5.50, 25°C, 0.5 nM enzyme): 0.74±0.13
- Kd (substrate Z-FR↓AMC, pH 5.50, 25°C, 0.5 nM enzyme, read-out: K A (equilibrium dissociation constant of the EA complex)): 150 ± 50 µM
Structure (SMILES): OC(c1cc(-c2ccc(C(F)(F)F)cc2)nc(C(F)(F)F)c1)C1CCCCN1 (stereo not drawn) [Compound 2, Piperidin-2-yl-[2-(trifluoromethyl)-6-[4-(trifluoromethyl)phenyl]pyridin-4-yl] methanol]
